Patent US20240366539A1, “METHODS FOR TREATING AUTISM SPECTRUM DISORDERS” (INSTITUT NATIONAL DE LA SANTÉ ET DE LA RECHERCHE MÉDICALE, priority 2021, published 2024)

Tests used:
[1] = stated in conclusion, no data; cited from earlier work
rat mGlu4 receptor = biological target: T1, rat mGlu4 receptor (Rattus norvegicus, UniProt P31423); experiment: IP1 accumulation assay, mGlu4 signaling under glutamate stimulation; type: cell-based
T1 construct: expressed in transfected cells
Description: Human embryonic kidney (HEK) 293 cells were transiently transfected with rat mGlu4 receptor by electroporation together with a chimeric Gi/Gq protein to allow phospholipase activation and EAAC1, a glutamate transporter, to avoid influence of extracellular glutamate. […] 96-well plate (Greiner Bio-One) at the density of 100,000 cells per well and for IPOne assay in a PLO-coated black 96-well plate (Greiner Bio-One) at the density of 50,000 cells per well. Cells were cultured in DMEM (Gibco™, Life Technologies), supplemented with 10% fetal bovine serum. Medium was changed by GlutaMAX (Gibco™, Life Technologies) to reduce extracellular glutamate concentration 3 h before experiment. […]
IP1 accumulation assay: Inositol monophosphate accumulation was determined using the IP-One HTRF (Homogenous Time Resolved Fluorescence) kit (Cisbio Bioassays, Perkin Elmer, Codolet, France) according to the manufacturer's recommendations (72). […]
Data were analyzed using Prism 6 software (GraphPad Software, San Diego, CA, USA). […] Statistical differences between pEC50, ΔpEC50 and Emax were determined using a one-way analysis of variance followed by Tukey's post-test.
We measured mGlu4 signaling under glutamate stimulation in HEK293T cells transiently expressing mGlu4 receptors and Gαqi9, a Gi/Gq chimeric G-protein (57) that allows mGlu4 to activate the phosphoinositide pathway.

Oprm1^−/− mice [2] = experiment: Novelty-suppressed feeding; type: in vivo, mouse
Description: (§1) Mice were treated with vehicle (NaCl 0.9%; ip, 10 or 20 ml/kg), NaBr (Sigma-Aldrich, Saint-Quentin Fallavier, France) administered either chronically (once a day, 10, 30, 70, 125, 250 and 500 mg/kg; i.p. or per os, in a volume of 20 ml/kg—except for combination with VU0155041: […]) or acutely (250 mg/kg, 20 ml/kg), KBr (Sigma-Aldrich, Saint-Quentin Fallavier, France; 145 mg/kg; i.p., 20 ml/kg), bumetanide (R&D systems, Minneapolis, USA, 0.5 and 2 mg/kg; i.p., 20 ml/kg) or VU0155041 (Cayman Chemicals, Ann Arbor, USA, once a day, i.p., 1 mg/kg, 10 ml/kg). […] When treatment was given chronically, behavioral testing started 8 days after beginning of daily administration. Treatment was maintained for 8 to 18 consecutive days (see timelines in FIGS. 1 and 4), allowing thorough behavioral phenotyping. On testing days, or when treatment was given acutely, drugs (or vehicle) were administered 30 min before behavioral assays.
(§2) Novelty-suppressed feeding. Novelty-suppressed feeding (NSF) was measured in 24-hr food-deprived mice, isolated in a standard housing cage for 30 min before individual testing. Three pellets of ordinary lab chow were placed on a white tissue in the center of each arena, lit at 60 lx. Each mouse was placed in a corner of an arena and allowed to explore for a maximum of 15 min. Latency to feed was measured as the time necessary to bite a food pellet. Immediately after an eating event, the mouse was transferred back to home cage (free from cage-mates) and allowed to feed on lab chow for 5 min. Food consumption in the home cage was measured.

Fmr1^−/− mice = experiment: Novelty-suppressed feeding; type: in vivo, mouse; conditions: chronic NaBr 250 mg/kg once daily
Description: as §1, §2
(§3) To this purpose, we evaluated the effects of chronic NaBr administration at the dose of 250 mg/kg on autism-sensitive behaviors in these lines (FIG. 3A).

Shank3^Δex13-16−/− mice = experiment: Novelty-suppressed feeding; type: in vivo, mouse; conditions: Shank3Δex13-16−/− mice; chronic NaBr 250 mg/kg once daily
Description: as §1, §2, §3

Oprm1^−/− mice [3] = experiment: Tail-immersion test; type: in vivo, mouse; conditions: 50° C., NaBr 70 mg/kg, VU0155041 1 mg/kg, alone or combined, chronic
Description: as §1
Tail-immersion test. Nociceptive thresholds were assessed by immersing the tail of the mice (5 cm from the tip) successively into water baths at 48° C., 50° C. and 52° C. The latency to withdraw the tail was measured at each temperature, with a cutoff of 10 s.

Oprm1^−/− mice [4] = experiment: Behavioral tests of social, repetitive and anxious behavior (oral NaBr, KBr; data not shown); conditions: mouse, in vivo, po, 250 mg/kg
Description: as §1
Also, we assessed the behavioral effects of chronic administration of another bromide salt, KBr.

Oprm1^−/− mice [5] = experiment: Three-chamber social preference test; type: in vivo, mouse
Description: as §1
Three-chamber social preference test. The test apparatus consisted of a transparent acrylic box (exterior walls blinded with black plastic film); partitions divided the box into three equal chambers (40×20×22.5 cm). Two sliding doors (8×5 cm) allowed transitions between chambers. Cylindrical wire cages (18×9 cm, 0.5 cm diameter-rods spaced 1 cm apart) were used to contain the mouse interactor and object (soft-toy mouse). The test was performed in low-light conditions (15 lx) to minor anxiety. Stimulus wild-type mice were habituated to confinement in wire cages for 2 days before the test (20 min/day). On testing day, the experimental animal was introduced to the middle chamber and allowed to explore the whole apparatus for a 10-min habituation phase (wire cages empty) after the sliding doors were raised. The experimental mouse was then confined back in the middle-chamber while the experimenter introduced an unfamiliar wild type age and sex-matched animal into a wire cage in one of the side-chambers and a soft toy mouse (8×10 cm) in the second wire cage as a control for novelty. Then the experimental mouse was allowed to explore the apparatus for a 10-min interaction phase. The time spent in each chamber, the time spent in nose contact with each wire cage (empty: habituation; containing a mouse or a toy: interaction), as well as the number of these nose contacts were scored a posteriori on video recordings using an ethological keyboard (Labwatcher®, View Point, Lyon, France) by trained experimenters. […] The relative position of stimulus mice (versus toy) was counterbalanced between groups.

[6] = chronic NaBr (since lowest dose, 10 mg/kg) or bumetanide 0.5 and 2 mg/kg

T1 sequence (P31423 33-912): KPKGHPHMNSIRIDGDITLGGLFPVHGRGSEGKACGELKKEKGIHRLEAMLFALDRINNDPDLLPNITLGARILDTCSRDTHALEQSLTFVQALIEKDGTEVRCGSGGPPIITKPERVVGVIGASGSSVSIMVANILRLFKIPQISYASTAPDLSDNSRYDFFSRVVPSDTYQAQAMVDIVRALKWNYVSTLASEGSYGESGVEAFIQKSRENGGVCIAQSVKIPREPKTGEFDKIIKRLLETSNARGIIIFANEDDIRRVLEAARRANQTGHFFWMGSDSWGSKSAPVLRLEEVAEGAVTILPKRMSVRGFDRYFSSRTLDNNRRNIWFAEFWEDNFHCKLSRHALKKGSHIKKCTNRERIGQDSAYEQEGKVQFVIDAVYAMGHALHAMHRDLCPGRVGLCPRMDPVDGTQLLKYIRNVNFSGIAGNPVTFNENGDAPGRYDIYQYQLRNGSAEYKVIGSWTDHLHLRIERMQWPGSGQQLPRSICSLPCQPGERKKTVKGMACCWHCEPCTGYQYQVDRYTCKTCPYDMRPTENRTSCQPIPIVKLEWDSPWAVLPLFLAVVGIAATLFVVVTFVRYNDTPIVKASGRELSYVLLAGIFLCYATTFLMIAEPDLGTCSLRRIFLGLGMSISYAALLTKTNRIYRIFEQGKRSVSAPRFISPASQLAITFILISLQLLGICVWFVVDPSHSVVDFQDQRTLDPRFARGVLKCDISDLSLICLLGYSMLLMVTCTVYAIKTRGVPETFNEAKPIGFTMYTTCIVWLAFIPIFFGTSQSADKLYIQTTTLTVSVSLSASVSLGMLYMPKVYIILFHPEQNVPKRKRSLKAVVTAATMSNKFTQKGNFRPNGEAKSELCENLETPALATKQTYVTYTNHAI

## [Br-].[Na+] [NaBr, sodium bromide]
[1]
  brain penetrance: excellent
  oral bioavailability: excellent oral bioavailability
Rat mGlu4 receptor; HEK293 cells, mGlu4 + Gαqi9, bromide
  increase in glutamate efficacy (Emax, maximal IP1 production): 60±10%
Rat mGlu4 receptor; addition of Br− (so in the source)
  ΔpEC50 of glutamate between physiological Cl− concentration and after addition of Br−: 0.42±0.03
Oprm1^−/− mice [2]; Oprm1−/− mice, chronic NaBr 70 mg/kg
  latency to feed: sufficient to normalize latency to feed
Oprm1^−/− mice [2]; Oprm1−/− mice, chronic NaBr (since the lowest dose tested) or bumetanide
  latency to eat: normalized eating latency
Oprm1^−/− mice [2]; both mouse lines, chronic NaBr (since the lowest dose tested) or bumetanide
  food intake: increased food intake in both mouse lines
Fmr1^−/− mice
  food intake: no modification in their food intake
  latency to eat: reduced this latency
Shank3^Δex13-16−/− mice
  food intake: had no effect on food intake
  latency to eat: normalized this latency to WT levels
Oprm1^−/− mice [3]
  flicking latency (nociceptive threshold): ineffective
Oprm1^−/− mice [4]
  autistic-like deficits and motor stereotypies: relieved autistic-like deficits and motor stereotypies in Oprm1^−/− mice in a similar way as it did after intra-peritoneal injection
Oprm1^−/− mice [5]; NaBr 70 mg/kg or VU0155041 1 mg/kg, once daily, chronic
  frequency of nose contacts with the mouse versus the toy: sufficient to restore more frequent nose contacts with the mouse versus the toy
Oprm1^−/− mice [5]; NaBr 70 mg/kg, VU0155041 1 mg/kg, alone or combined, once daily, chronic
  duration of nose contacts with the mouse versus the toy: fully restored longer nose contacts with the mouse
Oprm1^−/− mice [5]; chronic NaBr 10-500 mg/kg once daily
  social preference: completely restored social preference in mutant mice
Oprm1^−/− mice [5]; chronic NaBr 10-500 mg/kg or bumetanide 0.5 and 2 mg/kg
  social preference ratio: normalization of their preference ratio from 10 mg/kg NaBr and over
Oprm1^−/− mice [5]; [6]
  duration of nose contacts with the mouse versus the toy: longer
  number of nose contacts with the mouse versus the toy: more frequent
